Data reported in patent publication US8236963B2, “Tricyclic spiro derivatives as CRTH2 modulators” (Merck Serono SA, priority 2005, dated 2012).
pKi: −log10 of the molar value.

Columns and labels:
CRTH2 [1] = target: T1, CRTH2 (Homo sapiens, UniProt Q9Y5Y4); experiment: Radioligand binding assay ([3H]PGD2, hCRTH2 HEK293 (EBNA) cell membranes); parameters: expressed in transfected cells; host or cells: HEK293 (EBNA) cells, membrane preparation; details: 1.5 nM [3H]PGD2, 10 μg hCRTH2 HEK293 (EBNA) membrane protein, 60 min at room temperature
T1 sequence (Q9Y5Y4 1-395): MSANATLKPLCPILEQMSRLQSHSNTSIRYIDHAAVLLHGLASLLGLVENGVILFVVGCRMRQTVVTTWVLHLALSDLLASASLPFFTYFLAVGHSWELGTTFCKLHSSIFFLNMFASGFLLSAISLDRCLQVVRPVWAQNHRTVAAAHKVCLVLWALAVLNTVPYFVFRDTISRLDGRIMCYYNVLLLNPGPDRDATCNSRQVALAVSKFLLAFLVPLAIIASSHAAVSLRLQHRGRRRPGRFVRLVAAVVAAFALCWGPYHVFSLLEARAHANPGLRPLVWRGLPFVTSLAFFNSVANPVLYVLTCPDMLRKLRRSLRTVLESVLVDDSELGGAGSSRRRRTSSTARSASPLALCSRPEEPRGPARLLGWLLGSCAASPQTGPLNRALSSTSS
Excerpt: Human CRTH2 cDNA was amplified by PCR using a human urinary bladder cDNA library as a template and specific primers containing HindIII and BamHI restriction sites for cloning into the pCEP4 vector (Invitrogen). The vector construction is described in detail in Sawyer et al., Br. J. Pharmocol 2002, 137, 1163-72. The nucleotide sequence of the cloned cDNA was identical the previously reported hCRTH2 sequence (Nagata et al, 1999, J. Immunol. 162, 1278-1286).
HEK293 (EBNA) cells were transfected with the pCEP4-hCRTH2 construct using the calcium phosphate technique. Cells were maintained in culture at 37° C. in an atmosphere of 5% CO2 in Dulbecco's modified Eagle's F12 medium (Invitrogen), containing 10% heat-inactivated foetal calf serum (TerraCell International, Canada), 2 mM Glutamine, 100 units/ml of penicillin and 100 μg/ml streptomycin (Invitrogen). 48 hours after the transfection, cells were grown in presence of 300 μg/ml of Hygromycin B (Invitrogen) for 4 weeks and antibiotic resistant cells were amplified for cell membrane preparation.
Adherent HEK293 (EBNA) cells expressing hCRTH2 were cultured in 225 cm^2 cell culture flasks (Corning, USA) in 30 ml of medium. After two rinses of phosphate buffered saline (PBS), cells were harvested in 10 ml of PBS containing 1 mM EDTA, centrifuged at 500×g for 5 min at 4° C. and frozen at −80° C. The pellet was re-suspended in 50 mM Tris-HCl, pH 7.4, 2 mM EDTA, 250 mM Sucrose, containing protease inhibitor cocktail tablets, (Complete EDTA-free, Roche, Germany) and incubated 30 min at 4° C. Cells were disrupted by nitrogen cavitation (Parr Instruments, USA) at 4° C. (800 p.s.i. for 30 min), and centrifuged at 500×g for 10 min at 4° C. Pellet containing nuclei and cellular debris was discarded and supernatant was centrifuged 60 min at 4° C. at 45000×g. Membrane pellet was re-suspended in storage buffer (10 mM HEPES/KOH pH 7.4, 1 mM EDTA, 250 mM sucrose, protease inhibitor cocktail tablets) using Dounce homogenization and frozen in liquid nitrogen, and stored at −80° C.
The inhibitory activity can be investigated by a radioligand binding assay (Sawyer et al., Br. J. Pharmocol 2002, 137, 1163-72). The radioligand binding assay was performed at room temperature in binding buffer (10 mM HEPES/KOH pH […], with protease inhibitor cocktail tablets), containing 1.5 nM [^3H]PGD2 (Amersham, 156 Cie/mmol), and 10 μg of hCRTH2 HEK293 (EBNA) cell membrane protein in a final volume of 100 μl in 96 well plates (Corning, USA). Non-specific binding was determined in the presence of 1 μM PGD2 (Cayman, USA). Competing spiro-indolinones were diluted in dimethylsulphoxide so that the total volume of dimethylsulfoxide was kept constant at 1% dimethylsulphoxide (Me2SO) Serial dilutions of 100 μM and […] were prepared. 10 μl each of these spiro-indolinone stock solutions were added. Incubation (60 min at room temperature) was terminated by rapid filtration through 96 wells hydrophobic GF/C Unifilter plates (Whatman, USA). Filters were washed twice with 250 μl of Tris-HCl pH 7.4, 10 mM MnCl2, and residual radioligand bound to the filters was mixed to 100 μl of liquid scintillation cocktail (Optiphase Supermix, Perkin Elmer, USA) and binding activity was determined by counting residual radioligand using a 1450 Micro-beta scintillation counter (Wallac, UK). The following representative compounds were tested. […]

CRTH2 [2] = target: T1, CRTH2; experiment: Determination of Ki (radioligand binding assay, equilibrium competition against [3H]PGD2); parameters: expressed in transfected cells; host or cells: HEK293 (EBNA) cells, membrane preparation; details: average of at least three independent dose response experiments
Method: The inhibitory activity can be investigated by a radioligand binding assay (Sawyer et al., Br. J. Pharmocol 2002, 137, 1163-72). The radioligand binding assay was performed at room temperature in binding buffer (10 mM HEPES/KOH pH […], with protease inhibitor cocktail tablets), containing 1.5 nM [^3H]PGD2 (Amersham, 156 Cie/mmol), and 10 μg of hCRTH2 HEK293 (EBNA) cell membrane protein in a final volume of 100 μl in 96 well plates (Corning, USA). Non-specific binding was determined in the presence of 1 μM PGD2 (Cayman, USA). Competing spiro-indolinones were diluted in dimethylsulphoxide so that the total volume of dimethylsulfoxide was kept constant at 1% dimethylsulphoxide (Me2SO) Serial dilutions of 100 μM and […] were prepared. 10 μl each of these spiro-indolinone stock solutions were added. Incubation (60 min at room temperature) was terminated by rapid filtration through 96 wells hydrophobic GF/C Unifilter plates (Whatman, USA). Filters were washed twice with 250 μl of Tris-HCl pH 7.4, 10 mM MnCl2, and residual radioligand bound to the filters was mixed to 100 μl of liquid scintillation cocktail (Optiphase Supermix, Perkin Elmer, USA) and binding activity was determined by counting residual radioligand using a 1450 Micro-beta scintillation counter (Wallac, UK). The following representative compounds were tested. All inhibited the binding of PGD2 to CRTH2 by more than 70%. • (1′-benzyl-5-chloro-2,2′,5′-trioxospiro[indole-3,3′-pyrrolidin]-1(2H)-yl)acetic acid • (1′-benzyl-5-fluoro-2,2′,5′-trioxospiro[indole-3,3′-pyrrolidin]-1(2H)-yl)acetic acid • 4-(1′-allyl-5-chloro-2,2′,5′-trioxospiro[indole-3,3′-pyrrolidin]-1(2H)-yl)butanoic acid • [5-chloro-1′-(2-methoxyethyl)-2,2′,5′-trioxospiro[indole-3,3′-pyrrolidin]-1(2H)-yl]acetic acid • 4-(1′-benzyl-5-chloro-2,2′,5′-trioxospiro[indole-3,3′-pyrrolidin]-1(2H)-yl)butanoic acid • (1′-benzyl-5-methoxy-2,2′,5′-trioxospiro[indole-3,3′-pyrrolidin]-1(2H)-yl)acetic acid • [5-fluoro-1′-[(2-methoxyethoxy)methyl]-2,2′,5′-trioxospiro[indole-3,3′-pyrrolidin]-1(2H)-yl]acetic acid • 4-(1′-allyl-5-fluoro-2,2′,5′-trioxospiro[indole-3,3′-pyrrolidin]-1(2H)-yl)butanoic acid • 4-(1′-benzyl-5-fluoro-2,2′,5′-trioxospiro[indole-3,3′-pyrrolidin]-1(2H)-yl)butanoic acid
Ki values were determined by equilibrium competition binding experiments against [^3H]PGD2. Ki values were calculated from the formula below and represent the average of at least three independent dose response experiments. The Ki values give the ligand concentrations necessary to inhibit 50% of the binding of [^3H]PGD2 to CRTH2. Ki=IC50/(1+[Concentration of Ligand]/Kd)]
All experiments were performed in 96 well plates, in a final volume of 100 μl according to the above described filtration assay. The concentration of membranes and 3 [H]PGD2, as well as the positive and negative controls were identical to the conditions described above.

[3] = test system: DK-PGD2-induced vascular leakage; experiment: Model of DK-PGD2-induced vascular leakage in mice; assay type: in vivo, Balb/c mice; details: Mus musculus, 1.5 h; dose of 30 mg/kg; 30 min before DK-PGD2 challenge; Evans blue extravasation
Method: This test is described in Takeshita et al. (2004). Balb/c mice (Elevage Janvier) (8 week old) received an intradermal injection of DK-PGD2 (10 μg in 30 μl) on their shaved backs and an intravenous injection of Evans blue solution (25 mg/kg) 30 min after administration of the test molecules (spiro derivative). Ninety minutes after the challenge, the animals were sacrificed. The skin of the back was removed and blood was sampled. The extravasated dye (punch diameter: 5 mm) was extracted by 0.2 ml of formamide and was quantified by fluorescence (E1: 585 nm, E2: 660 nm). The Evans Blue extravasation ratio was expressed as the following: skin/serum×1000.

SMILES | inhibition (CRTH2 [1]) [%] | pKi (CRTH2 [2]) | inhibition in vivo at 30 mg/kg [3] [%]
C=CCN1C(=O)CC2(C1=O)C(=O)N(CCCC(=O)O)c1ccc(Cl)cc12 (stereo not drawn) [4-(1′-allyl-5-chloro-2,2′,5′-trioxospiro[indole-3,3′-pyrrolidin]-1(2H)-yl)butanoic acid] | > 70 |  | 
C=CCN1C(=O)CC2(C1=O)C(=O)N(CCCC(=O)O)c1ccc(F)cc12 (stereo not drawn) [4-(1′-allyl-5-fluoro-2,2′,5′-trioxospiro[indole-3,3′-pyrrolidin]-1(2H)-yl)butanoic acid] | > 70 |  | 
O=C(O)CCCN1C(=O)C2(CC(=O)N(Cc3ccccc3)C2=O)c2cc(Cl)ccc21 (stereo not drawn) [4-(1′-benzyl-5-chloro-2,2′,5′-trioxospiro[indole-3,3′-pyrrolidin]-1(2H)-yl)butanoic acid] | > 70 |  | 
O=C(O)CCCN1C(=O)C2(CC(=O)N(Cc3ccccc3)C2=O)c2cc(F)ccc21 (stereo not drawn) [4-(1′-benzyl-5-fluoro-2,2′,5′-trioxospiro[indole-3,3′-pyrrolidin]-1(2H)-yl)butanoic acid] | > 70 |  | 
O=C(O)CN1C(=O)C2(CC(=O)N(Cc3ccccc3)C2=O)c2cc(F)ccc21 (stereo not drawn) [(1′-benzyl-5-fluoro-2,2′,5′-trioxospiro[indole-3,3′-pyrrolidin]-1(2H)-yl)acetic acid] | > 70 |  | 
COc1ccc2c(c1)C1(CC(=O)N(Cc3ccccc3)C1=O)C(=O)N2CC(=O)O (stereo not drawn) [(1′-benzyl-5-methoxy-2,2′,5′-trioxospiro[indole-3,3′-pyrrolidin]-1(2H)-yl)acetic acid] | > 70 |  | 
O=C(O)CN1C(=O)C2(NC(=O)N(Cc3ccccc3F)C2=O)c2cc(Cl)ccc21 (stereo not drawn) [Compound 108, [5′-chloro-1-(2-fluorobenzyl)-2,2′,5-trioxospiro[imidazolidine-4,3′-indol]-1′(2′H)-yl]acetic acid] |  | 8.32 | 
O=C(O)CN1C(=O)[C@@]2(CC(=O)N(Cc3ccccc3F)C2=O)c2cc(Cl)ccc21 [Compound 109, (3R)-[5-chloro-1′-(2-fluorobenzyl)-2,2′,5′-trioxospiro[indole-3,3′-pyrrolidin]-1(2H)-yl]acetic acid] |  | 7.55 | 38
O=C(O)CN1C(=O)[C@]2(CC(=O)N(Cc3ccccc3F)C2=O)c2cc(Cl)ccc21 [Compound 110, (3S)-[5-chloro-1′-(2-fluorobenzyl)-2,2′,5′-trioxospiro[indole-3,3′-pyrrolidin]-1(2H)-yl]acetic acid] |  | 8.08 | 
O=C(O)CN1C(=O)[C@]2(CC(=O)N(Cc3cc(Cl)ccc3F)C2=O)c2cc(Cl)ccc21 [Compound 111, (3S)-[5-chloro-1′-(2-fluoro-5-chlorobenzyl)-2,2′,5′-trioxospiro[indole-3,3′-pyrrolidin]-1(2H)-yl]acetic acid] |  | 6.33 | 65
O=C(O)CN1C(=O)[C@@]2(CC(=O)N(Cc3cc(Cl)ccc3F)C2=O)c2cc(Cl)ccc21 [Compound 112, (3R)-[5-chloro-1′-(2-fluoro-5-chlorobenzyl)-2,2′,5′-trioxospiro[indole-3,3′-pyrrolidin]-1(2H)-yl]acetic acid] |  | 6.82 | 61
O=C(O)CN1C(=O)C2(CC(=O)N(Cc3ccccc3)C2)c2cc(Cl)ccc21 (stereo not drawn) [Compound 113, (1′-benzyl-5-chloro-2,5′-dioxospiro[indole-3,3′-pyrrolidin]-1(2H)-yl)acetic acid] |  | 6.20 | 55
COCCN1C(=O)CC2(C1=O)C(=O)N(CC(=O)O)c1ccc(Cl)cc12 (stereo not drawn) [[5-chloro-1′-(2-methoxyethyl)-2,2′,5′-trioxospiro[indole-3,3′-pyrrolidin]-1(2H)-yl]acetic acid] | > 70 |  | 
COCCOCN1C(=O)CC2(C1=O)C(=O)N(CC(=O)O)c1ccc(F)cc12 (stereo not drawn) [[5-fluoro-1′-[(2-methoxyethoxy)methyl]-2,2′,5′-trioxospiro[indole-3,3′-pyrrolidin]-1(2H)-yl]acetic acid] | > 70 |  | 
